Active and inactive are the calls of the source.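 The calls were made as follows: active = inhibition of at least 30% at one or more tested concentrations; inactive = inhibition below 30% at every dose.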
Test system: not listed separately
Experiment: antiviral protection against BTV-induced cell death – arbovirus, BSR cells, confirmation (AID 1250)
Conditions: BSR cells, Bluetongue virus CPE, ATP luminescence, 72 h; at 20 µM (top of the series)

| Structure (SMILES) | CPE inhibition |
| --- | --- |
| Cc1ccc2nc(-c3ccc(Br)o3)oc(=O)c2c1 | 21.3% (inactive) |
| O=C(O)c1ccc(COc2ccc3ccccc3c2/C=C2/NC(=O)N(Cc3ccc(F)cc3)C2=O)cc1 | 7.43% (inactive) |
| CCOc1ccc(-n2c(=S)sc3c(=O)[nH]c(SCC(=O)C(C)(C)C)nc32)cc1 | 7.23% (inactive) |
| C/C=C/c1ccc(OCCCCOc2ccccc2C(C)=O)c(OC)c1 | 11.9% (inactive) |
| CC(C)(C)C1CCc2c(sc(NC(=O)C3CC=CCC3C(=O)O)c2C#N)C1 (stereo not given) | 26.8% (inactive) |
| Cc1cc(C)c(NC(=S)NC(=O)c2ccc(-c3ccccc3)cc2)c(C)c1 | 14.9% (inactive) |
| CCCC(=O)Oc1ccccc1C1SCc2cc(C)c(C)cc2CS1 | 6.38% (inactive) |
| O=C1N=c2ccccc2=C1c1sc(Nc2ccc(O)cc2)nc1O | 14.8% (inactive) |
| COc1ccc(CCCc2nnc(SCc3nc4ccccc4c(=O)[nH]3)n2C)cc1 | 3.86% (inactive) |
| COc1ccc(-c2noc(-c3ccccc3-c3ccccc3)n2)cc1OC | 10.8% (inactive) |
| COC(=O)c1sccc1NC(=O)CSc1ccccc1NS(=O)(=O)c1ccc(Br)cc1 | 18.5% (inactive) |
| CCOC(=O)c1csc(NC(=O)CC2CCCC2)n1 | 6.07% (inactive) |
| COc1ccc(C(=O)NN/C(C)=C/C(=O)C(F)(F)C(F)(F)C(F)(F)F)cc1 | -14.6% (inactive) |
| CCCCCCc1cc2cc(C(=O)Nc3ccc(OC)cc3)c(=O)oc2cc1O | -3.41% (inactive) |
| CCOc1ccc(-c2csc(NC(=O)CSCC(=O)O)n2)c2ccccc12 | 17.7% (inactive) |
| O=C(CSc1ncn[nH]1)Nc1nc(-c2ccccc2)ns1 | 6.55% (inactive) |
| CC(C)(C)c1ccc(N/N=C(\C#N)S(=O)(=O)C(C)(C)C)cc1 | 23.9% (inactive) |
| CS(=O)(=O)C1=NSC2=NC(=O)/C(=C\c3cccn3-c3ccccc3Cl)C(=N)N21 | 8.16% (inactive) |
| COC1=C/C(=C/c2c(N)n3nc(-c4ccc(C)cc4)sc3nc2=O)C=CC1=O | 29.9% (inactive) |

| Structure (SMILES) | CPE inhibition |
| --- | --- |
| O=C(O)c1ccccc1Sc1c([N+](=O)[O-])cc(C(F)(F)F)cc1[N+](=O)[O-] | 9.2% (inactive) |
| CCc1ccc(N2CCN(C(=O)c3ccc(OC)c(OC)c3)CC2)cc1 | 7.4% (inactive) |
| CC1Cc2ccccc2N1C(=O)CSc1ccccc1 (stereo not given) | -1.84% (inactive) |
| C/C(=N\NS(=O)(=O)c1ccccc1)c1cccc(NC(=O)c2cccc(Cl)c2)c1 | 15.9% (inactive) |
| Cc1ccc(NC(=O)COc2ccc(Br)cc2CO)cc1 | 10.5% (inactive) |
| COc1ccc(CN(C(=O)c2oc3ccccc3c2C)C2CCS(=O)(=O)C2)cc1OC (stereo not given) | 18.3% (inactive) |
| CCOC(=O)c1c(O)c2c(n(Cc3ccco3)c1=O)CCCC2 | 14.7% (inactive) |
| Cc1ccc(S(=O)(=O)N2CCN(Cc3cc(C(C)C)ccc3O)CC2)cc1 | 15.9% (inactive) |
| CC1=C(C#N)C(=O)NC(=O)/C1=C\c1ccc(-c2cc(C)c(C)cc2[N+](=O)[O-])o1 | 4.65% (inactive) |
| N#Cc1c(NC(=O)C2CC(Cl)=CCC2C(=O)O)sc2c1CCCCC2 (stereo not given) | 17.1% (inactive) |
| Cc1oc(-c2ccccc2Cl)nc1CSCC(=O)N1CCCC1 | 16.4% (inactive) |
| COc1cccc(C2CC(c3ccc(Cl)cc3Cl)Nc3nc(N)nn32)c1 (stereo not given) | 2.82% (inactive) |
| CC(C)CCN(C(=S)NC(=O)C1CCCCC1)c1c(N)n(Cc2ccccc2)c(=O)[nH]c1=O | 7% (inactive) |
| COc1ccc2nc(NC(=O)C3=NN(c4ccccc4)C(=O)CC3)sc2c1 | -2.13% (inactive) |
| Cc1cccc(CSc2nnc(NC(=O)CSc3nnc(C)s3)s2)c1 | 17.3% (inactive) |
| COc1ccc(CN(C(=O)CSc2nnc(-c3ccc(F)cc3)o2)c2ccc(F)cc2)cc1 | 21.3% (inactive) |
| COc1ccc(-c2noc(CSc3nc(-c4ccccc4)cc(=O)[nH]3)n2)cc1OC | 26.6% (inactive) |
| O=C(CSc1ncn(-c2ccccc2)n1)Nc1nc2ccccc2s1 | 10.5% (inactive) |
| COC(=O)Nc1ccc(S(=O)(=O)N2CCC(C(=O)N(C)C3CCCCC3)CC2)cc1 | 4.71% (inactive) |

Test system: BSR cells, Bluetongue virus CPE, ATP luminescence, 72 h
Experiment: as above
Conditions: not given

| Structure (SMILES) | IC50 |
| --- | --- |
| O=C(/C=C/c1cccs1)Nc1scc(-c2ccccc2)c1C(=O)O | 6.24 µM |
| CCOc1ccc(N=Nc2c(=O)[nH]n3c(=O)c4c([nH]c23)CCCC4)cc1 | 16.6 µM |
| O=c1oc(-c2cc3ccccc3o2)nc2sc3c(c12)CCCC3 | 4.59 µM |
| CC(NC(=O)c1cccs1)c1nnc(SCc2ccc(Cl)cc2Cl)n1C (stereo not given) | 9.37 µM |
| Cc1ccc(N2C(=O)/C(=C\c3ccc(C(C)C)cc3)N=C2SC2CCOC2=O)cc1 (stereo not given) | 12.1 µM |
| CC(C)(C)c1c(Cl)c(O)c(-c2ccccc2)c(=O)n1-c1ccccc1 | 15.5 µM |
| COC(=O)c1ccccc1NC(=O)CN1CCC(n2nnc3cc(F)ccc32)CC1 | 0.178 µM |
| CCc1nn2c(N)c(/C=C3\C=Nc4ccccc43)c(=O)nc2s1 | 18.3 µM |
| C/C(=N\NC(=O)c1ccccc1C)c1ccc(NC(=O)c2cccs2)cc1 | 0.524 µM |
| CC(C)c1ccc(-c2csc(NC(=O)c3cccs3)c2C(=O)O)cc1 | 11.1 µM |
| Cc1ccc(-c2csc(NC(=O)C3=NN(c4ccccc4)C(=O)CC3)n2)cc1 | 11.1 µM |
| COc1ccc(-c2csc(NC(=O)C3=NN(c4ccccc4)C(=O)CC3)n2)cc1 | 20.7 µM |
| O=c1[nH]n2c(=O)c3c([nH]c2c1N=Nc1cccc(Cl)c1)CCCC3 | 18.5 µM |
| O=c1[nH]n2c(=O)c3c([nH]c2c1N=Nc1cccc(C(F)(F)F)c1)CCCC3 | 19.5 µM |
| CC(C)COc1ccc(C(=O)Nc2sc3c(c2C(=O)O)CC(C)(C)OC3)cc1 | 13.1 µM |
| Oc1ccc(Br)cc1-c1cc(-c2ccc(Cl)cc2)n[nH]1 | 17.5 µM |
| O=C(O)CSc1cc(C(=O)c2ccccc2O)cn2c(=O)c3c(-c4ccccc4)csc3nc12 | 14.1 µM |
| O=C(CSc1nc(-c2ccccc2)nc2c1Cc1ccccc1O2)Nc1ccc(C(=O)O)cc1 | 17.5 µM |
| COc1ccc(-c2csc(NC(=O)c3ccco3)n2)cc1 | 19.3 µM |
| Cc1csc(NC(=O)c2c(O)c3c(n(CC(C)C)c2=O)CCCC3)n1 | 4.9 µM |
| O=C(/C=C/c1ccccc1)Nc1scc(-c2ccccc2)c1C(=O)O | 3.06 µM |

| Structure (SMILES) | IC50 |
| --- | --- |
| COc1ccc(CN(C(=O)c2cc3ccccc3oc2=O)C2CCCCC2)cc1OC | 16.6 µM |
| Nc1nc(-c2ccccc2)c(-c2ccc([N+](=O)[O-])cc2)s1 | 5.6 µM |
| Cc1cccc(C)c1-n1cccc1/C=C1/C(=N)N2C(=NC1=O)SN=C2S(C)(=O)=O | 16.4 µM |
| CCNc1nc(SCCOc2ccc(Cl)cc2Cl)nc(N(C)C)n1 | 5.92 µM |
| Cc1cc(C)c2cc(CN(Cc3cccnc3)C(=O)c3ccc(F)cc3)c(Cl)nc2c1 | 0.416 µM |
| CC(=O)Nc1cccc(Oc2ncnc3scc(-c4ccccc4)c23)c1 | 15.6 µM |
| COc1ccc(/C=C/C(=O)Nc2ccccc2C(=O)O)cc1OC | 4.78 µM |
| Cc1nc(Nc2ccc3c(c2)OCCO3)c2nnn(Cc3ccccc3Cl)c2n1 | 20.8 µM |
| CCc1cc(C(=O)O)c(NC(=O)/C=C/c2ccc(OC)c(OC)c2)s1 | 1.68 µM |
| O=C(O)c1cccc(N/N=C/C2=C(Cl)c3cc(Cl)ccc3SC2)c1 | 13.2 µM |
| COC(=O)c1ccccc1NC(=O)CN1CCC(NC(=O)c2ccccc2C)CC1 | 1.45 µM |
| C(=N\Nc1nc(-c2ccccc2)cs1)/c1cccs1 | 15.5 µM |
| COc1ccc(Cl)cc1NC(=O)c1cc(-c2ccccc2O)n[nH]1 | 14.4 µM |
| COc1cc([N+](=O)[O-])ccc1NC(=O)CC1SC(=Nc2ccc(F)cc2)N(CCC2=CCCCC2)C1=O (stereo not given) | 0.108 µM |
| COc1ccc(NC(=O)c2c[nH]n3c(=O)cc(C4CCN(C(=O)OC(C)(C)C)CC4)nc23)cc1Cl | 12.2 µM |
| CC(C)Cc1csc(NC(=O)c2ccccc2Cl)c1C(=O)O | 20.6 µM |
| Oc1ccc(Nc2nc(NCC3CCCO3)c3ccccc3n2)cc1 (stereo not given) | 20.8 µM |
| CCOC(=O)c1ccc(N2C(=O)C3C(/C=C/c4ccccc4)OC4(C(=O)c5ccccc5C4=O)C3C2=O)cc1 (stereo not given) | 19.6 µM |
| COCCCn1c(N)c(-c2nc3ccccc3n2C)c2nc3ccccc3nc21 | 7.62 µM |
| Cc1ccc(-c2csc(NC(=O)c3cccs3)n2)cc1 | 5 µM |
| CCOc1cc(/C=C(/C#N)c2ccc(Cl)cc2)cc(Cl)c1OCC(=O)O | 20.6 µM |

| Structure (SMILES) | IC50 |
| --- | --- |
| CCOc1ccc(-c2cc3nc(C4CCN(C(=O)OC(C)(C)C)CC4)c(C(=O)O)cn3n2)cc1 | 19.8 µM |
| O=c1oc(/C=C/c2ccccc2)nc2sc3c(c12)CCC3 | 8.92 µM |
| CCOc1ccc(C(=O)Nc2cc(NC(=O)c3ccc(OCC)c(Cl)c3)cc(C(=O)O)c2)cc1Cl | 20.9 µM |
| O=C(/C=C/c1ccco1)Nc1sc2c(c1C(=O)O)CCC2 | 17 µM |
| CC(C)Sc1nsc2nc(=O)c(/C=C3\C=Nc4ccccc43)c(N)n12 | 10.3 µM |
| CC1(c2ccc([N+](=O)[O-])cc2)CC(C)(C)N(C(=O)c2ccccc2)c2ccccc21 (stereo not given) | 9.68 µM |
| Cc1nc(CS(=O)c2ccc(Cl)cc2)cc(NCc2ccc(Cl)cc2Cl)n1 (stereo not given) | 9.42 µM |
| CC(=O)OC[C@H]1O[C@@H](n2ncc(=O)[nH]c2=O)[C@H](OC(C)=O)[C@@H]1OC(C)=O | 9.79 µM |
| COc1cc(C(=O)Nc2nc(-c3ccc(C)cc3)cs2)ccc1OCC(=O)N1CCOCC1 | 4 µM |
| COc1cc(C(=O)Nc2nc(-c3ccc(F)cc3)cs2)ccc1OCC(=O)N1CCOCC1 | 10.6 µM |
| Cc1ccc(-c2csc(NC(=O)/C=C/c3ccco3)c2C(=O)O)cc1 | 8.57 µM |
| O=C(Nc1nc(-c2ccccc2)cs1)c1cccs1 | 10.1 µM |
| CC(C)(C)c1ccc(C(=O)Nc2sc3c(c2C(=O)O)CCC3)cc1 | 0.165 µM |
| COc1ccc(NC(=O)c2cc3cccc(OC)c3oc2=Nc2ccc(C(=O)O)cc2)cc1OC | 13.3 µM |
| COc1ccc(Cn2c(C)c(C)c(C#N)c2NC(=O)Nc2cccc(C)c2)cc1 | 7.63 µM |
| COc1cccc(C(=O)Nc2nc(-c3ccc4c(c3)OCO4)cs2)c1 | 9.98 µM |
| O=C(Nc1ccccc1)Nc1snnc1C(=O)Nc1cccc(O)c1 | 19 µM |
| C=CCn1c(CNC(=O)c2cccs2)nnc1SCc1ccc(Cl)cc1Cl | 11 µM |
| CCCCCCc1cc2cc(C(=O)Nc3ccccc3OC)c(=O)oc2cc1O | 9.14 µM |
| CC(C(=O)Nc1ccccc1-c1ccccc1)N1CCN(S(=O)(=O)c2ccccc2)CC1 (stereo not given) | 1.4 µM |

Source: PubChem BioAssay AID1250 (SRMLSC, 2008)
